Patent publication US20240025893A1, “PYRIMIDINE-AND NITROGEN-CONTAINING BICYCLIC COMPOUND” (Asahi Kasei Pharma Corporation, priority 2020, published 2024)

Legend:
[1] = biological target: human IRAK-4 (Homo sapiens (Human), UniProt Q9NWZ3); test: Measurement of human IRAK-4 inhibitory activity (TR-FRET, peptide substrate phosphorylation, 10 μM ATP); format: biochemical; conditions: 1 nM IRAK-4, 10 μM ATP, 23° C., 30 minutes; average values
Description: For the measurement of the activity of the human IRAK-4 (Invitrogen, Cat. PV3362), phosphorylation of the IRAK-4 peptide substrate (biotin-KKKKRFSFKKSFKC) by the enzyme in the presence of 10 μM ATP (Sigma-Aldrich, Cat. A7699) was measured by the TR-FRET method. The enzymatic reaction was performed in a reaction buffer containing 50 mM HEPES (pH 7.2), 1 mM DTT, 0.1 mM Na3VO4, 5 mM MgCl2, 1 mM MnCl2, and 0.1% bovine serum albumin. For the measurement of the IRAK-4 inhibitory activity, a test compound was added to the reaction buffer containing 1 nM IRAK-4, 0.5 μM peptide substrate, and 10 μM ATP, and the mixture was incubated at 23° C. for 30 minutes. Then, a detection solution containing an antibody labeled with europium cryptate (0.3 μg/mL, the antibody was prepared by using the IRAK-4 peptide substrate as the antigen), streptavidin-XL665 (2 μg/mL, CisBio, Cat. 610SAXLB), 50 mM HEPES (pH 7.2), 0.1% BSA, 120 mM KF, and 66.7 mM EDTA (all the concentrations of the reagents are final concentrations) was added to terminate the reaction, and then the mixture was further incubated at 23° C. for 60 minutes. Fluorescence intensity was measured at wavelengths of 665 nm and 620 nm with a microplate reader, and the enzymatic activity was calculated as the ratio of fluorescence intensities at 665 nm and 620 nm (665 nm/620 nm).

[2] = tested on: LPS-stimulated TNFα production in THP-1 cells; test: LPS-stimulated TNFα production inhibition test using human acute monocytic leukemia cell strain THP-1; format: cell-based; conditions: LPS 2.5 ng/mL, average values
Description: By the THP-1 assay, influence of a test compound on the TNFα production induced by LPS stimulation can be evaluated. The THP-1 cells (ATCC, Cat. TIB-202) were inoculated on a 96-well plate at a density of 1×10^5 cells/160 μL/well, a test compound was added in a volume of 20 μL, and the plate was incubated at 37° C. for 1 hour in a 5% CO2 incubator. Then, LPS in a volume of 20 μL (final concentration 2.5 ng/mL, Sigma, Cat. L2630) was added, and the plate was further incubated for 4 hours. After the incubation, the plate was centrifuged, and 100 μL of the supernatant was taken from each well, and used for evaluation of the amount of TNFα using HTRF (Cisbio, Cat. 62TNFPEB). In the measurement of the amount of TNFα, the supernatant was diluted twice with the medium, and then added to wells of a 384-well plate in a volume of 10 μL, then anti-TNFα-cryptate (5 μL), and anti-TNFα-XL665 (5 μL) were added, and the plate was left standing overnight. The fluorescence intensity ratio for the wavelengths of 620 and 665 nm (620 nm/665 nm) was measured with a microplate reader, and the amount of TNFα in the supernatant was calculated by using a calibration curve. The TNFα production suppression ratio observed with no addition of LPS was defined to be 100%, the TNFα production suppression ratio observed with no addition of the test compound was defined to be 0%, and IC50 of the test compound was calculated by using the 4-parameter logistic model of the data analysis software XLfit (ID Business Solutions Ltd.).

Sequence of human IRAK-4 (Q9NWZ3 whole entry): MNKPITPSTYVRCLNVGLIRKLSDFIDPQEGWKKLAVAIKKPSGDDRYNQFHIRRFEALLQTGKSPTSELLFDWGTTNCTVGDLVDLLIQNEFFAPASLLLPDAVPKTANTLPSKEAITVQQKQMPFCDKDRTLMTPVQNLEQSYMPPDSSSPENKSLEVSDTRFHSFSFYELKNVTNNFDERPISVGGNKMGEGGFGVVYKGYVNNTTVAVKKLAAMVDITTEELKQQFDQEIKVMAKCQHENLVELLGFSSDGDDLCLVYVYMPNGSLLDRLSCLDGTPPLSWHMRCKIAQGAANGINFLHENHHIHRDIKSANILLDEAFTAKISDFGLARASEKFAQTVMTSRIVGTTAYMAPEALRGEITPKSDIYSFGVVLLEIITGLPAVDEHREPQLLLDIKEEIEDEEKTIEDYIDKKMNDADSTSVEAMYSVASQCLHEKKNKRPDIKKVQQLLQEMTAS

SMILES	IC50 [1]	IC50 ([2]; Homo sapiens, THP-1, 4 h)	IC50 ([2]; 4 hours)	IC50 ([2]; Homo sapiens, 4 hours)
O=C(Nc1nc2ccc(-c3cnc(CO[C@H]4CCC[C@@H]4O)nc3)cc2s1)C1CC1 [a-01-01, N-(6-(2-((((1S,2S)-2-Hydroxycyclopentyl)oxy)methyl)pyrimidin-5-yl)benzo[d]thiazol-2-yl)cyclopropanecarboxamide]	1.89 nM	121 nM		
O=C(Nc1nc2ccc(-c3cnc(CO[C@H]4CCC[C@@H]4O)nc3)cc2s1)[C@H]1C[C@H]1F [a-01-02]	1.98 nM	180 nM		
O=C(Nc1nc2ccc(-c3cnc(CO[C@H]4CCC[C@@H]4O)nc3)cc2s1)[C@@H]1C[C@H]1F [a-01-03]	2.69 nM	141 nM		
O=C(Nc1nc2ccc(-c3cnc(CO[C@H]4CCC[C@@H]4O)nc3)cc2s1)[C@@H]1C[C@@H]1F [a-01-04]	1.73 nM	151 nM		
O=C(Nc1nc2ccc(-c3cnc(CO[C@H]4CCC[C@@H]4O)nc3)cc2s1)C1C[C@H]1c1cccnc1 (stereo partly drawn) [a-01-05]	2.08 nM	121 nM		
CO[C@H]1C[C@@H](C(=O)Nc2nc3ccc(-c4cnc(CO[C@H]5CCC[C@@H]5O)nc4)cc3s2)C1 [a-01-06]		170 nM		
Cn1cc([C@@H]2CC2C(=O)Nc2nc3ccc(-c4cnc(CO[C@H]5CCC[C@@H]5O)nc4)cc3s2)cn1 (stereo partly drawn) [a-01-07]	1.73 nM	148 nM		
O=C(Nc1nc2ccc(-c3cnc(CO[C@H]4CCC[C@@H]4O)nc3)cc2s1)C1C[C@H]1c1ccncc1 (stereo partly drawn) [a-01-08]	2.66 nM	161 nM		
O=C(Nc1nc2ccc(-c3cnc(CO[C@H]4CCC[C@@H]4O)nc3)cc2s1)C1C[C@H]1C1CCOCC1 (stereo partly drawn) [a-01-09]	1.81 nM	140 nM		
COc1ccc([C@@H]2CC2C(=O)Nc2nc3ccc(-c4cnc(CO[C@H]5CCC[C@@H]5O)nc4)cc3s2)cc1 (stereo partly drawn) [a-01-10]	12.1 nM	678 nM		
O=C(Nc1nc2ccc(-c3cnc(CO[C@H]4CCC[C@@H]4O)nc3)c(Cl)c2s1)C1CC1 [a-01-11]	7.89 nM	437 nM		
O=C(Nc1nc2ccc(-c3cnc(CO[C@H]4CCC[C@@H]4O)nc3)c(F)c2s1)C1CC1 [a-01-12]	7.75 nM	361 nM		
CCCOCc1ncc(-c2ccc3nc(NC(=O)C4CC4)sc3c2)cn1 [a-02-01, N-(6-(2-(Propoxymethyl)pyrimidin-5-yl)benzo[d]thiazol-2-yl)cyclopropanecarboxamide]	16.1 nM	330 nM		
O=C(Nc1nc2ccc(-c3cnc(CO[C@H]4CC(F)(F)C[C@@H]4O)nc3)cc2s1)C1CC1 [a-03-01, N-(6-(2-((((1 S,2S)-4,4-Difluoro-2-hydroxycyclopentyl)oxy)methyl)pyrimidin-5-yl)benzo[d]thiazol-2-yl)cyclopropanecarboxamide]	1.41 nM	57 nM		
O=C(Nc1nc2ccc(-c3cnc(COC4CCCC4)nc3)cc2s1)C1CC1 [a-04-01, N-(6-(2-(Cyclopentoxymethyl)pyrimidin-5-yl)-1,3-benzo[d]thiazol-2-yl)cyclopropanecarboxamide]	1.38 nM	261 nM		
O=C(Nc1nc2ccc(-c3cnc(COC4CCC4)nc3)cc2s1)C1CC1 [a-04-03]	2.32 nM	355 nM		
O=C(Nc1nc2ccc(-c3cnc(COC4CC(F)(F)C4)nc3)cc2s1)C1CC1 [a-04-04]	2.32 nM	444 nM		
O=C(Nc1nc2ccc(-c3cnc(COC[C@@H]4CCCO4)nc3)cc2s1)C1CC1 [a-05-01]	7.81 nM	304 nM		
O=C(Nc1nc2ccc(-c3cnc(CO[C@H]4CCC[C@@H]4O)nc3)cc2s1)C1CC(N2CCOCC2)C1 (stereo partly drawn) [b-01-01, N-(6-(2-((((1S,2S)-2-Hydroxycyclopentyl)oxy)methyl)pyrimidin-5-yl)benzo[d]thiazol-2-yl)-3-moipholinocyclobutane-1-carboxamide]	3.39 nM	154 nM		
O=C(Nc1nc2ccc(-c3cnc(CO[C@H]4CCC[C@@H]4O)nc3)cc2s1)C1CC(N2CC(F)C2)C1 (stereo partly drawn) [b-01-02]	3.33 nM		177 nM	
O=C(Nc1nc2ccc(-c3cnc(CO[C@H]4CCC[C@@H]4O)nc3)cc2s1)C1CC(N2CC[C@@H](F)C2)C1 (stereo partly drawn) [b-02-01]	3.16 nM	195 nM		
O=C(Nc1nc2ccc(-c3cnc(CO[C@H]4CCC[C@@H]4O)nc3)cc2s1)C1CC(N2CC[C@H](F)C2)C1 (stereo partly drawn) [b-02-02]	2.79 nM	195 nM		

SMILES	IC50 [1]	IC50 ([2]; Homo sapiens, THP-1, 4 h)	IC50 ([2]; 4 hours)	IC50 ([2]; Homo sapiens, 4 hours)
O=C(Nc1nc2ccc(-c3cnc(CO[C@H]4CCC[C@@H]4O)nc3)cc2s1)C1CC(N2CCCOCC2)C1 (stereo partly drawn) [b-02-03]	2.53 nM	166 nM		
O=C(Nc1nc2ccc(-c3cnc(CO[C@H]4CCC[C@@H]4O)nc3)cc2s1)C1CC(N2CCC(F)(F)CC2)C1 (stereo partly drawn) [b-02-04]	3.64 nM	146 nM		
C[C@@H]1COCCN1C1CC(C(=O)Nc2nc3ccc(-c4cnc(CO[C@H]5CCC[C@@H]5O)nc4)cc3s2)C1 (stereo partly drawn) [b-02-05]	2.12 nM	131 nM		
C[C@H]1COCCN1C1CC(C(=O)Nc2nc3ccc(-c4cnc(CO[C@H]5CCC[C@@H]5O)nc4)cc3s2)C1 (stereo partly drawn) [b-02-06]	1.34 nM	66 nM		
C[C@H]1CN(C2CC(C(=O)Nc3nc4ccc(-c5cnc(CO[C@H]6CCC[C@@H]6O)nc5)cc4s3)C2)CCO1 (stereo partly drawn) [b-02-07]	2.28 nM	164 nM		
C[C@@H]1CN(C2CC(C(=O)Nc3nc4ccc(-c5cnc(CO[C@H]6CCC[C@@H]6O)nc5)cc4s3)C2)CCO1 (stereo partly drawn) [b-02-08]	2.76 nM	113 nM		
O=C(Nc1nc2ccc(-c3cnc(CO[C@H]4CCC[C@@H]4O)nc3)cc2s1)C1CC(N2CC3CC(C2)O3)C1 (stereo partly drawn) [b-02-09]	2.42 nM			142 nM
O=C(Nc1nc2ccc(-c3cnc(CO[C@H]4CCC[C@@H]4O)nc3)cc2s1)C1CC(N2CCCC(F)(F)C2)C1 (stereo partly drawn) [b-02-10]	3.94 nM	141 nM		
CC1(F)CN(C2CC(C(=O)Nc3nc4ccc(-c5cnc(CO[C@H]6CCC[C@@H]6O)nc5)cc4s3)C2)C1 (stereo partly drawn) [b-02-45]		200 nM		
O=C(Nc1nc2ccc(-c3cnc(CO[C@H]4CCC[C@@H]4O)nc3)cc2s1)C1CC(NC2CC(F)(F)C2)C1 (stereo partly drawn) [b-02-64]		164 nM		
CN(C1CC(C(=O)Nc2nc3ccc(-c4cnc(CO[C@H]5CCC[C@@H]5O)nc4)cc3s2)C1)C1(C#N)CC1 (stereo partly drawn) [b-02-73]		113 nM		
O=C(Nc1nc2ccc(-c3cnc(CO[C@H]4CCC[C@@H]4O)nc3)cc2s1)C1CC(N2CCCC3(COC3)C2)C1 (stereo partly drawn) [b-02-75]		186 nM		
C[C@H]1CN(S(C)(=O)=O)CCN1[C@H]1C[C@@H](C(=O)Nc2nc3ccc(-c4cnc(CO[C@H]5CCC[C@@H]5O)nc4)cc3s2)C1 [b-05-08]		81 nM		
CCNC(=O)N1CCN([C@H]2C[C@@H](C(=O)Nc3nc4ccc(-c5cnc(CO[C@H]6CCC[C@@H]6O)nc5)cc4s3)C2)[C@@H](C)C1 [b-06-01]		93 nM		
COc1c(-c2cnc(CO[C@H]3CCC[C@@H]3O)nc2)ccc2nc(NC(=O)[C@H]3C[C@@H]3C)sc12 [c-02-02]		186 nM		
COc1c(-c2cnc(CO[C@H]3CCC[C@@H]3O)nc2)ccc2nc(NC(=O)[C@H]3C[C@H]3C)sc12 [c-02-03]		229 nM		
COCC(=O)N1CCC2(CC1)CC(C(=O)Nc1nc3ccc(-c4cnc(CO[C@H]5CCC[C@@H]5O)nc4)cc3s1)C2 [d-03-02]		111 nM		
O=C(Nc1nc2ccc(-c3cnc(CO[C@H]4CCC[C@@H]4O)nc3)cc2s1)C1CC2(CCN(C(=O)C3CC3)CC2)C1 [d-03-03]		87 nM		
O=C(Nc1nc2ccc(-c3cnc(CO[C@H]4CCC[C@@H]4O)nc3)cc2s1)C1CC2(CCN(C(=O)c3ccccc3)CC2)C1 [d-03-04]		194 nM		
O=C(Nc1nc2ccc(-c3cnc(CO[C@H]4CCC[C@@H]4O)nc3)cc2s1)[C@H]1C[C@@H](OCC2CC2)C1 [d-04-04]		169 nM		
CC(C)(C)OC1CC(C(=O)Nc2cc3cc(-c4cnc(CO[C@H]5CCC[C@@H]5O)nc4)ccn3n2)C1 (stereo partly drawn) [e-03-01, 3-(tert-Butoxy)-N-(5-(2-((((1S,2S)-2-hydroxycyclopentyl)oxy)methyl)pyrimidin-5-yl)pyrazolo[1,5-a]pyridin-2-yl)cyclobutane-1-carboxamide]		168 nM		
